Data published in patent US9884126B2, “Anti-wall teichoic antibodies and conjugates” (priority 2013, dated 2018).
Values after ≈ are worked out from the molar mass of the structure shown.

Legend:
[1] = system: MRSA (NRS384 strain of USA300); test: MIC determination for extracellular bacteria; format: cell-based; settings: Staphylococcus aureus, read-out: Extracellular MRSA MIC
Protocol: Dilutions of the antibiotic were made in quadruplicate in 96 well culture dishes. MRSA (NRS384 strain of USA300) was taken from an exponentially growing culture and diluted to 1×10^4 CFU/mL. Bacteria was cultured in the presence of antibiotic for 18-24 hours with shaking at 37° C. and bacterial growth was determined by reading the Optical Density (OD) at […]. The MIC was determined to be the dose of antibiotic that inhibited bacterial growth by >90%.

[2] = system: MRSA (NRS384 strain of USA300); test: MIC determination / killing of intracellular bacteria in mouse peritoneal macrophages; format: cell-based, Staphylococcus aureus
[3] = system: MRSA (USA300); test: Intravenous infection model in CB17.SCID mice reconstituted with human IgG (SCID:huIgG); format: in vivo
Protocol: To confirm that the AAC would be effective in the presence of competing human antibodies in vivo, the in vivo infection model was modified to generate mice that express normal levels of human IgG in the serum. […] Four days after infection the bacterial load in the kidneys (FIG. 10C) was assessed.
CB17.SCID mice were reconstituted with human IgG using a dosing regimen optimized to yield constant levels of at least 10 mg/mL of human IgG in serum.
Efficacy of the AAC was compared with that of treatment with vancomycin, the current standard of care treatment for MRSA infections. […]
CB17.SCID mice were reconstituted with human IgG using a dosing regimen optimized to yield constant levels of at least 10 mg/mL of human IgG in serum and infected with 2×10^7 CFU of USA300 by intravenous injection. […] The mice were sacrificed on day 4 post infection, and the total number of surviving bacteria in kidneys (2 kidneys pooled, FIG. 21) and heart (FIG. 22) was determined by plating.
7 week old female mice were used for all in vivo experiments and infections were carried out by intravenous injection into the tail vein. […] The total number of bacteria recovered per mouse (2 kidneys) was determined by plating serial dilutions of the tissue homogenate in PBS 0.05% Tween on Tryptic Soy Agar with 5% defibrinated sheep blood.

[4] = system: USA300; test: Intravenous infection model, pre-treatment in Balb/c mice; format: in vivo; settings: antibodies 50 mg/Kg IV 30 minutes prior to infection; vancomycin 110 mg/Kg twice daily; day 4
Protocol: Balb/c mice were given a single dose of vehicle control (PBS) or 50 mg/Kg of antibodies by intravenous injection 30 minutes prior to infection with 2×10^7 CFU of USA300. […] Control mice were given twice daily treatments with 110 mg/Kg of vancomycin by intraperitoneal injection (Vanco). All mice were sacrificed on day 4 post-infection, and the total number of surviving bacteria in kidneys (2 kidneys pooled) was determined by plating.
7 week old female mice were used for all in vivo experiments and infections were carried out by intravenous injection into the tail vein. A/J mice (Jackson Lab) were infected with a dose of 2×10^6 CFU. Balb/c mice (Charles River Laboratories, Hollister, Calif.) were infected with a dose of 2×10^7 CFU. For studies examining the role of competing human IgG (SCID IVIG model), CB17.SCID mice (Charles River Laboratories, Hollister, Calif.) were reconstituted with GammaGard S/D IGIV Immune Globulin (ASD Healthcare, Brooks KY) using a dosing regimen optimized to achieve constant serum levels of >10 mg/mL of human IgG. […] The total number of bacteria recovered per mouse (2 kidneys) was determined by plating serial dilutions of the tissue homogenate in PBS 0.05% Tween on Tryptic Soy Agar with 5% defibrinated sheep blood.

[5] = system: MRSA; test: Transfer of infection from peritoneal cells to MG63 osteoblasts in the presence of vancomycin; format: cell-based, Staphylococcus aureus; settings: 5 μg/mL of vancomycin
Protocol: 6-8 week old female A/J mice (JAX™ Mice, Jackson Laboratories) were infected with 1×10^8 CFU of the NRS384 strain of USA300 by peritoneal injection. The peritoneal wash was harvested 1 day post infection, and the infected peritoneal cells were treated with 50 μg/mL of lysostaphin diluted in Hepes Buffer supplemented with 0.1% BSA (HB buffer) for 30 minutes at 37° C. Peritoneal cells were then washed 2× in ice cold HB buffer. The peritoneal cells were diluted to 1×10^6 cells/mL in RPMI 1640 tissue culture media supplemented with 10 mM Hepes and 10% Fetal Calf Serum, and 5 μg/mL vancomycin. Free MRSA from the primary infection was stored overnight at 4° C. in Phosphate Buffered Saline Solution as a control for extracellular bacteria that were not subject to neutrophil killing.
MG63 osteoblast cell line was obtained from ATCC (CRL-1427) and maintained in RPMI 1640 tissue culture media supplemented with 10 mM Hepes and 10% Fetal Calf Serum (RPMI-10). […] The actual titer for all infections was determined by plating serial dilutions of the bacteria on Tryptic Soy Agar with 5% defibrinated sheep blood.
To generate a pool of intracellular S. aureus, A/J mice were infected with MRSA and infected peritoneal cells were taken 1 day post infection. […] The total number of surviving intracellular bacteria in each well was determined by plating cell lysates on agar plates. […]

[6] = system: MRSA; settings: TSB; vancomycin 2 and 20 μg/mL, rifampin 0.02 and 0.2 μg/mL

CN[C@H](CC(C)C)C(=O)N[C@H]1C(=O)N[C@@H](CC(N)=O)C(=O)N[C@H]2C(=O)N[C@H]3C(=O)N[C@H](C(=O)N[C@H](C(=O)O)c4cc(O)cc(O)c4-c4cc3ccc4O)[C@H](O)c3ccc(c(Cl)c3)Oc3cc2cc(c3O[C@@H]2O[C@H](CO)[C@@H](O)[C@H](O)[C@H]2O[C@H]2C[C@](C)(N)[C@H](O)[C@H](C)O2)Oc2ccc(cc2Cl)[C@H]1O [Vancomycin] was tested, and the MIC [1] was 1 µg/mL (≈ 0.69 µM), the MIC ([2]; Staphylococcus aureus, 24 h, MRSA inside mouse peritoneal macrophages, […]) was > 100 µg/mL and the “killing of intracellular MRSA sequestered inside macrophages” value ([2]; doses including clinically achieveable serum levels) was “failed to kill”. The “efficacy in SCID:huIgG mice (kidney bacteria day 4)” value ([3]; AAC single dose 50 mg/Kg day 1, vancomycin 100 mg/Kg twice daily) was “failed to clear the infection”, the “reduction of bacterial loads” value ([3]; twice-daily 100 mg/Kg, initiated more than 1 day post infection) was “about 50 fold” and the “effect of pre-treatment on bacterial loads in kidneys” value [4] was “cleared the infection in all of the mice tested”. For the same molecule, the “intracellular bacteria recovered from MG63 wells 1 day after infection” value ([5]; infected with 3×10^4 intracellular bacteria) was 8,750 intracellular bacteria, the “intracellular bacteria recovered from MG63 wells 1 day post infection” value ([5]; infected with a similar dose of free MRSA) was 375 intracellular bacteria and the “bacteria remaining viable during the first two hours of treatment” value [6] was 90%. The “loss in viable bacteria by 5 hours” value [6] was 100 fold.
